Reference: patent US12180187B2, “1-phenyl-5-azinylpyrazolyl-3-oxyalkyl acids and their use for controlling unwanted plant growth” (BAYER AKTIENGESELLSCHAFT, priority 2019, dated 2024)

Key:
[1] = test system: POAAN; assay: Pre-emergence action against POAAN, 1280 g/ha; assay type: in vivo, Poa annua; details: visual scoring after about 3 weeks vs untreated controls, 100% = plants have died, 0% = like control plants
How it was run: (§1)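 Compound applied as WP or EC in aqueous spray (0.5% additive, 600 L/ha) to the surface of sandy loam covering freshly sown seeds. After about 3 weeks under good greenhouse conditions, damage is given as visual percentage, 100% meaning plant death.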

[2] = test system: AMARE; assay: Pre-emergence action against AMARE, 1280 g/ha; assay type: in vivo, Amaranthus retroflexus; details: scored visually after about 3 weeks vs untreated controls (100% = plants have died)
How it was run: as §1

[3] = test system: STEME; assay: Pre-emergence action against STEME, 1280 g/ha; assay type: in vivo, Stellaria media; details: scored visually after about 3 weeks vs untreated controls (100% = plants have died)
How it was run: as §1

[4] = test system: ABUTH; assay: Post-emergence action against ABUTH, 1.28 kg/ha; assay type: in vivo, Abutilon theophrasti; details: dosage 1280 g/ha, visual rating about 3 weeks after treatment vs untreated controls (100% = plants died)
How it was run: (§2)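 Weeds grown in sandy loam in a greenhouse were sprayed at the one-leaf stage, 2–3 weeks after sowing, with WP or EC formulations in water containing 0.5% additive at 600 L/ha. About 3 weeks later, damage was scored visually versus untreated controls (0% = like control, 100% = dead).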

[5] = test system: AMARE; assay: Post-emergence action against AMARE, 1.28 kg/ha; assay type: in vivo, Amaranthus retroflexus; details: dosage 1280 g/ha, visual rating about 3 weeks after treatment vs untreated controls (100% = plants died)
How it was run: as §2

[6] = test system: KCHSC; assay: Post-emergence action against KCHSC, 1.28 kg/ha; assay type: in vivo, Bassia scoparia; details: dosage 1280 g/ha, visual rating about 3 weeks after treatment vs untreated controls (100% = plants died)
Method: • a) Seeds of mono- and dicotyledonous weed plants are placed in plastic pots in sandy loam soil (twin sowing with one species each of mono- or dicotyledonous weed plants per pot), covered with soil and cultivated in a greenhouse under controlled growth conditions. 2 to 3 weeks after sowing, the test plants are treated at the one-leaf stage. The compounds of the invention, formulated in the form of wettable powders (WP) or as emulsion concentrates (EC), are applied to the green parts of the plants as aqueous suspension or emulsion with addition of 0.5% additive at a water application rate equivalent to 600 litres per hectare. After the test plants have been kept in the greenhouse under optimum growth conditions for about 3 weeks, the activity of the preparations is rated visually in comparison to untreated controls. For example, 100% activity=the plants have died, 0% activity=like control plants. As shown by the results, compounds of the general formula (I) of the invention, in post-emergence treatment, have very good herbicidal efficacy (90% to 100% herbicidal action) against harmful plants such as Abutilon theophrasti, Digitaria sanguinalis, Echinochloa crus-galli, Matricaria inodora, Poa annua, at an application rate of 1.28 kg of active substance per hectare.

[7] = test system: VERPE; assay: Post-emergence action against VERPE, 1.28 kg/ha; assay type: in vivo, Veronica persica; details: dosage 1280 g/ha, visual rating about 3 weeks after treatment vs untreated controls (100% = plants died)
How it was run: as §2

[8] = test system: ALOMY; assay: Pre-emergence action against ALOMY, 1280 g/ha; assay type: in vivo, Alopecurus myosuroides; details: visual scoring after about 3 weeks vs untreated controls, 100% = plants have died, 0% = like control plants
How it was run: as §1

[9] = test system: DIGSA; assay: Pre-emergence action against DIGSA, 1280 g/ha; assay type: in vivo, Digitaria sanguinalis; details: visual scoring after about 3 weeks vs untreated controls, 100% = plants have died, 0% = like control plants
How it was run: as §1

[10] = test system: ECHCG; assay: Pre-emergence action against ECHCG, 1280 g/ha; assay type: in vivo, Echinochloa crus-galli; details: visual scoring after about 3 weeks vs untreated controls, 100% = plants have died, 0% = like control plants
How it was run: as §1

[11] = test system: LOLRI; assay: Pre-emergence action against LOLRI, 1280 g/ha; assay type: in vivo, Lolium rigidum; details: visual scoring after about 3 weeks vs untreated controls, 100% = plants have died, 0% = like control plants
How it was run: as §1

[12] = test system: SETVI; assay: Pre-emergence action against SETVI, 1280 g/ha; assay type: in vivo, Setaria viridis; details: visual scoring after about 3 weeks vs untreated controls, 100% = plants have died, 0% = like control plants
How it was run: as §1

[13] = test system: MATIN; assay: Pre-emergence action against MATIN, 1280 g/ha; assay type: in vivo, Tripleurospermum inodorum (Matricaria inodora); details: scored visually after about 3 weeks vs untreated controls (100% = plants have died)
How it was run: as §1

[14] = test system: VERPE; assay: Pre-emergence action against VERPE, 1280 g/ha; assay type: in vivo, Veronica persica; details: scored visually after about 3 weeks vs untreated controls (100% = plants have died)
How it was run: as §1

[15] = test system: ALOMY; assay: Post-emergence action against ALOMY, 1.28 kg/ha; assay type: in vivo, Alopecurus myosuroides; details: dosage 1280 g/ha, visual rating about 3 weeks after treatment vs untreated controls
How it was run: as §2

[16] = test system: POAAN; assay: Post-emergence action against POAAN, 1.28 kg/ha; assay type: in vivo, Poa annua; details: dosage 1280 g/ha, visual rating about 3 weeks after treatment vs untreated controls
How it was run: as §2

[17] = test system: MATIN; assay: Post-emergence action against MATIN, 1.28 kg/ha; assay type: in vivo, Tripleurospermum inodorum (Matricaria inodora); details: dosage 1280 g/ha, visual rating about 3 weeks after treatment vs untreated controls (100% = plants died)
How it was run: as §2

[18] = test system: DIGSA; assay: Post-emergence action against DIGSA, 1.28 kg/ha; assay type: in vivo, Digitaria sanguinalis; details: dosage 1280 g/ha, visual rating about 3 weeks after treatment vs untreated controls
How it was run: as §2

[19] = test system: ECHCG; assay: Post-emergence action against ECHCG, 1.28 kg/ha; assay type: in vivo, Echinochloa crus-galli; details: dosage 1280 g/ha, visual rating about 3 weeks after treatment vs untreated controls
How it was run: as §2

[20] = test system: SETVI; assay: Post-emergence action against SETVI, 1.28 kg/ha; assay type: in vivo, Setaria viridis; details: dosage 1280 g/ha, visual rating about 3 weeks after treatment vs untreated controls
How it was run: as §2

| Structure (SMILES) | Pre-emergence action against POAAN [1] [%] | Pre-emergence action against AMARE [2] [%] | Pre-emergence action against STEME [3] [%] | Post-emergence action against ABUTH [4] [%] | Post-emergence action against AMARE [5] [%] | Post-emergence action against KCHSC [6] [%] | Post-emergence action against VERPE [7] [%] | Pre-emergence action against ALOMY [8] [%] | Pre-emergence action against DIGSA [9] [%] | Pre-emergence action against ECHCG [10] [%] | Pre-emergence action against LOLRI [11] [%] | Pre-emergence action against SETVI [12] [%] | Pre-emergence action against MATIN [13] [%] | Pre-emergence action against VERPE [14] [%] | Post-emergence action against ALOMY [15] [%] | Post-emergence action against POAAN [16] [%] | Post-emergence action against MATIN [17] [%] | Post-emergence action against DIGSA [18] [%] | Post-emergence action against ECHCG [19] [%] | Post-emergence action against SETVI [20] [%] |
| --- | --- | --- | --- | --- | --- | --- | --- | --- | --- | --- | --- | --- | --- | --- | --- | --- | --- | --- | --- | --- |
| N#CCCNC(=O)COc1nn(-c2ccc(F)cc2F)c(-c2ccc(F)nc2)c1Br [Example X-029] | 100 | 100 | 90 | 90 | 90 | 90 | 100 |  |  |  |  |  |  |  |  |  |  |  |  |  |
| N#CCCNC(=O)COc1nn(-c2ccccc2F)c(-c2ccc(F)nc2)c1Br [Example X-032] | 100 | 100 | 100 |  |  | 90 | 100 | 100 | 100 | 100 | 100 | 100 | 100 | 100 | 100 | 100 | 90 |  |  |  |
| CONC(=O)COc1nn(-c2ccc(F)cc2F)c(-c2ccc(F)cn2)c1Br [II-004] | 100 |  |  |  |  | 90 | 100 | 100 | 100 |  | 90 |  |  |  | 100 |  |  | 100 |  |  |
| CCOC(=O)COc1nn(-c2ccccc2F)c(-c2ccc(F)cn2)c1I [II-012] | 100 | 90 | 100 | 90 | 100 | 100 | 100 | 90 | 100 | 90 | 100 | 100 | 90 | 90 | 100 | 100 | 90 | 90 | 100 | 90 |
